Data taken from patent US6683162B2, “Targeted alpha particle therapy using actinium-255 conjugates” (Sloan Kettering Institute of Cancer Research, priority 2000, dated 2004).
Where two headings read alike, the source gives them in different places. Blank lines part the entries; values can stand above or below the molecule they belong to.

Key:
[1] = Liver accumulation of free 225Ac (acetate) injected into a mouse; type: in vivo
Experimental: In contrast to these two [225Ac]DOTA-IgG constructs, free ^225Ac (acetate) injected into a mouse rapidly accumulates in the liver: 40%, 40%, 65% at 24 h, 48 h, and 120 h, respectively.

[2] = Stability of 225Ac complexes of simple chelants: yttrium challenge and C-25 column elution
Experimental: Approximately, 200 μCi of ^225Ac solution was mixed with 10 μl of 50 mM of a ligand solution (such as DOTA) and pH was adjusted to about 6-6.5 with 33 μl of 3 M ammonium acetate. The reaction was kept in a water bath at 37° C. for completion in 2 hours. Reaction yield was monitored using 10 mM NaOH/9% NaCl solvent. Then, 10 μl of 77.5 mM Yttrium chloride solution was added to react with excess chelants for 30 minutes. There are two reasons for adding the 1.5 fold excess Yttrium: 1) if ^225Ac complex is not stable, Yttrium will replace ^225Ac c, and 2) Yttrium will react with chelants and make a final solution at metal excess. The excess metal will be held on a C-25 purification column and the radiometal complex can pass through the column. Therefore, the purified solution should contain a 1:1 metal to ligand ratio for the stability studies.
Each reaction solution was purified through a 1 ml C-25 column using a 5 ml of normal saline as eluting buffer. The first 2.5 ml elution was collected for the stability study. The activity in the eluate and the activity retaining on the column were measured using a dose calibrator 20 hours after purification.

[3] = Long-term in vitro stability of 225Ac-DOTA complex in 25% human serum (ITLC); type: in vitro ADME; conditions: 37° C., after 1 month
Experimental: 100% human serum (Sigma Chemical Co., St. Louis, Mo.), 100% mouse serum and 25% human serum albumin (Swiss Red Cross, Bern, Switzerland) was used to determine stability of the ^225 Ac complexes and conjugates. Aliquots in serum are mixed with diethylenetriaminepentaacetic acid (DPTA) (Aldrich Chemical Co., Milwaukee, Wis.). ITLC was utilized with either a 10 mM EDTA or 10 mM NaOH/9% NaCl solvent system and ITLC SG strips (Gelman Science Inc., Ann Arbor, Mich.) to assess the complexation and conjugation efficiency of the chelants. The ITLC strips were analyzed by gas ionization detection with an Ambis 4000 (Ambis, San Diego, Calif.).
Long-term in vitro stability of the ^225Ac-DOTA complex was tested by mixing 100 μl of the purified sample with 900 μl of 25% human serum. The ^225Ac-DOTA and solution was incubated at 37° C. and sampled periodically over the course of 30 days. The samples were analyzed by ITLC.

[4] = test system: human HL60 leukemia cells; conditions: Bi-213 construct, S.A. 8.4 Ci/g; cited from earlier work
leukemia cells = conditions: cumulative doses of up to 3.7 GBq (100 mCi); cited from earlier work
[5] = after yttrium addition, C-25 column

Molecule: CC(=O)[O-].CC(=O)[O-].CC(=O)[O-].[225Ac+3] [free 225Ac (acetate)]
- accumulation in the liver ([1]; 24 h): 40%
- accumulation in the liver ([1]; 48 h): 40%
- accumulation in the liver ([1]; 120 h): 65%

Molecule: O=C([O-])CN1CCN(CC(=O)[O-])CCN(CC(=O)[O-])CCN(CC(=O)[O-])CC1.[225Ac+3] [225Ac-DOTA]
- percentage of 225Ac activity eluted from the column ([2]; after […] excess yttrium, 1 ml C-25 column, normal saline, activity measured 20 hours after purification): 98.7%
- metal remains complexed [3]: 85%

Molecule: O=C(O)CCN1CCCN(CCC(=O)O)CCN(CCC(=O)O)CCCN(CCC(=O)O)CC1 [TETPA]
- stability of 225Ac complex (all 225Ac retained on the column) [2, 5]: unstable

Molecule: O=C(O)CCN1CCN(CCC(=O)O)CCN(CCC(=O)O)CCN(CCC(=O)O)CC1 [DOTPA]
- stability of 225Ac complex (all 225Ac retained on the column) [2, 5]: unstable

Molecule: O=C(O)CN1CCCN(CC(=O)O)CCN(CC(=O)O)CCCN(CC(=O)O)CC1 [TETA]
- stability of 225Ac complex (all 225Ac retained on the column) [2, 5]: unstable

Molecule: [Bi-213]HuM195: 213Bi alpha-particle emitting HuM195 antibody construct, comparator
- LD50 [4]: 200,000 pCi/mL
- tumorocidal activity for leukemia cells (leukemia cells): major tumorocidal activity

- stability of 225Ac complex (all 225Ac retained on the column) [2]: unstable
Molecule: O=C(O)CN(CCN(CC(=O)O)CC(=O)O)CCN(CC(=O)O)CC(=O)O (225Ac complex, metal not drawn) [DTPA]
